Key:
MNS-induced AF = settings: cited from earlier work; for effect on MNS-induced AF: previous work
[1] = test system: intrinsic cardiac (IC) neurons; assay: evoked action potentials of intrinsic cardiac neurons after local drug application (intracellular recording); type: cell-based, guinea pig; settings: 10^-3 M, 1- to 2-s local pressure ejection; across all groups (control, PO, PO+RCV, PO+LCV)
Method: Intracellular voltage recordings from IC neurons derived from explanted IC ganglia placed in 35-37° C. Krebs-Ringer solution were obtained by impaling cells with 3 M KCl-filled glass micropipettes (40- to 80-Me resistance) using an Axoclamp 2B amplifier (Molecular Devices). Data were collected, digitized, and analyzed using pClamp 10.2 (Molecular Devices). Individual neurons were used for data analysis if their resting membrane potential (RMP) was −40 mV or less and produced action potentials (APs) with an overshoot of >20 mV. Input resistance was determined using 0.1- and 0.2-nA pulses (500 ms). Neuronal soma excitability was monitored by observing the response to a series of long depolarizing current pulses (0.1-0.6 nA, 500 ms). The number of evoked APs vs. stimulus intensity was determined to assess relative changes in excitability. Afterhyperpolarization (AHP) durations were analyzed to determine the time to reach 50% of the amplitude from the peak of the AHP to the RMP.
For each cell, after characterization of the basic electrophysiological properties, induced changes in the number of evoked APs by depolarizing pulses were again assessed immediately following a 1- to 2-s application of NE (10^-3 M; Sigma) or bethanechol (a muscarinic agonist, 10^-3 M; Sigma). […]

## C[N+](C)(C)CCCCCC[N+](C)(C)C [Hexamethonium]
MNS-induced AF; posttreatment, from 90% baseline
  number of AF responses to MNS stimulation: 10%

## NC[C@H](O)c1ccc(O)c(O)c1 [NE, norepinephrine]
[1]
  changes in IC neuronal sensitivity elicited by local application: less than that elicited by bethanecol

## CN1[C@@H]2CC[C@H]1C[C@@H](OC(=O)C(CO)c1ccccc1)C2 (stereo partly shown) [atropine]
MNS-induced AF
  effect on MNS-induced AF: eliminated

## CC(C)(C)NC[C@H](O)COc1nsnc1N1CCOCC1 [timolol]
MNS-induced AF
  effect on MNS-induced AF: modified

— patent US11241579B2, “Monitoring and modulation of parasympathetic nervous system” (THE REGENTS OF THE UNIVERSITY OF CALIFORNIA, priority 2016, dated 2022)
